Measurements: ChEMBL document CHEMBL4507310, “Data for DCP probe A-1211212” (2021)

Legend:
[1] = target: Serine/threonine-protein kinase MARK1 (Homo sapiens) (UniProt Q9P0L2); conditions: Compound concentration 1000.0 nM
[2] = target: Cyclin-dependent kinase 18 (Homo sapiens) (UniProt Q07002); conditions: Compound concentration 1000.0 nM
[3] = target: Serine/threonine-protein kinase DCLK1 (Homo sapiens) (UniProt O15075); conditions: Compound concentration 1000.0 nM
[4] = target: Serine/threonine-protein kinase WNK4 (Homo sapiens) (UniProt Q96J92); conditions: Compound concentration 1000.0 nM
[5] = target: Ephrin type-B receptor 2 (Homo sapiens) (UniProt P29323); conditions: Compound concentration 1000.0 nM
[6] = target: Serine/threonine-protein kinase BRSK2 (Homo sapiens) (UniProt Q8IWQ3); conditions: Compound concentration 1000.0 nM
[7] = target: Mitogen-activated protein kinase 15 (Homo sapiens) (UniProt Q8TD08); conditions: Compound concentration 1000.0 nM
[8] = target: Tyrosine-protein kinase receptor UFO (Homo sapiens) (UniProt P30530); conditions: Compound concentration 1000.0 nM
[9] = target: Tyrosine-protein kinase receptor TYRO3 (Homo sapiens) (UniProt Q06418); conditions: Compound concentration 1000.0 nM
[10] = target: Serine/threonine-protein kinase PRP4 homolog (Homo sapiens) (UniProt Q13523); conditions: Compound concentration 1000.0 nM
[11] = target: Ephrin type-A receptor 8 (Homo sapiens) (UniProt P29322); conditions: Compound concentration 1000.0 nM
[12] = system: Mast/stem cell growth factor receptor Kit (Homo sapiens), P10721 [L576P]; conditions: Compound concentration 1000.0 nM
[13] = target: Ephrin type-A receptor 1 (Homo sapiens) (UniProt P21709); conditions: Compound concentration 1000.0 nM
[14] = target: Mitogen-activated protein kinase kinase kinase 15 (Homo sapiens) (UniProt Q6ZN16); conditions: Compound concentration 1000.0 nM
[15] = target: Serine/threonine-protein kinase mTOR (Homo sapiens) (UniProt P42345); conditions: Compound concentration 1000.0 nM
Rattus norvegicus [16] = species on record: Rattus norvegicus; test: SKCa channel Eurofins-Cerep binding assay; design: ligand concentration 0.007 nM; conditions: filed as antagonist, Compound concentration 10.0 uM
[17] = target: Serine/threonine-protein kinase B-raf (Homo sapiens) (UniProt P15056); conditions: Compound concentration 1000.0 nM
[18] = target: Phosphatidylinositol 5-phosphate 4-kinase type-2 beta (Homo sapiens) (UniProt P78356); conditions: Compound concentration 1000.0 nM
[19] = target: Mitogen-activated protein kinase 8 (Homo sapiens) (UniProt P45983); conditions: Compound concentration 1000.0 nM
[20] = target: Serine/threonine-protein kinase NIM1 (Homo sapiens) (UniProt Q8IY84); conditions: Compound concentration 1000.0 nM
[21] = target: Serine/threonine-protein kinase 24 (Homo sapiens) (UniProt Q9Y6E0); conditions: Compound concentration 1000.0 nM
[22] = target: Serine/threonine-protein kinase VRK2 (Homo sapiens) (UniProt Q86Y07); conditions: Compound concentration 1000.0 nM
Rattus norvegicus [23] = species on record: Rattus norvegicus; conditions: Compound concentration 10.0 uM
[24] = target: Ribosomal protein S6 kinase alpha-2 (Homo sapiens) (UniProt Q15349); conditions: Compound concentration 1000.0 nM
[25] = target: Cyclin-dependent kinase 9 (Homo sapiens) (UniProt P50750); conditions: Compound concentration 1000.0 nM
[26] = target: 5'-AMP-activated protein kinase catalytic subunit alpha-1 (Homo sapiens) (UniProt Q13131); conditions: Compound concentration 1000.0 nM
[27] = target: Phosphatidylinositol 5-phosphate 4-kinase type-2 gamma (Homo sapiens) (UniProt Q8TBX8); conditions: Compound concentration 1000.0 nM
[28] = target: Prostaglandin E2 receptor EP2 subtype (Homo sapiens) (UniProt P43116); test: EP2 (h) Eurofins-Cerep binding assay; design: ligand concentration 3 nM; conditions: filed as agonist, Compound concentration 10.0 uM
[29] = target: Wee1-like protein kinase 2 (Homo sapiens) (UniProt P0C1S8); conditions: Compound concentration 1000.0 nM
[30] = target: BMP-2-inducible protein kinase (Homo sapiens) (UniProt Q9NSY1); conditions: Compound concentration 1000.0 nM
[31] = target: Mitogen-activated protein kinase kinase kinase 3 (Homo sapiens) (UniProt Q99759); conditions: Compound concentration 1000.0 nM
[32] = target: Serine/threonine-protein kinase LATS2 (Homo sapiens) (UniProt Q9NRM7); conditions: Compound concentration 1000.0 nM
[33] = target: Sigma intracellular receptor 2 (Homo sapiens, UniProt Q5BJF2); test: GPCRScan assay: inhibition of Sigma 2; design: radioligand conc. used [nm] 5.0, parental cells HEKT
[34] = target: Serine/threonine-protein kinase WNK1 (Homo sapiens) (UniProt Q9H4A3); conditions: Compound concentration 1000.0 nM
[35] = target: GABA-A receptor; anion channel (Rattus norvegicus) (UniProt O09028+P15431+P18506+P18508+P19969+P20236+P23574+P23576+P28471+P28473+P30191+P62813+P63079+P63138+Q91ZM7+Q9ES14); test: Cl- channel (GABA-gated) Eurofins-Cerep binding assay; assay type: protein-complex assay; design: ligand concentration 3 nM; conditions: filed as antagonist, Compound concentration 10.0 uM
[36] = system: Leucine-rich repeat serine/threonine-protein kinase 2 (Homo sapiens), Q5S007 [G2019S]; conditions: Compound concentration 1000.0 nM
[37] = target: Glutamate NMDA receptor (Rattus norvegicus) (UniProt P35439+Q00959+Q00960+Q00961+Q62645+Q8VHN2+Q9R1M7); test: PCP Eurofins-Cerep binding assay; assay type: protein-complex assay; design: ligand concentration 10 nM; conditions: filed as antagonist, Compound concentration 10.0 uM
[38] = target: Calcium/calmodulin-dependent protein kinase kinase 2 (Homo sapiens) (UniProt Q96RR4); conditions: Compound concentration 1000.0 nM
[39] = target: Dual specificity protein kinase CLK1 (Homo sapiens) (UniProt P49759); conditions: Compound concentration 1000.0 nM
[40] = target: Dual specificity mitogen-activated protein kinase kinase 2 (Homo sapiens) (UniProt P36507); conditions: Compound concentration 1000.0 nM
[41] = target: Ribosomal protein S6 kinase beta-1 (Homo sapiens) (UniProt P23443); conditions: Compound concentration 1000.0 nM
[42] = target: Tyrosine-protein kinase receptor Tie-1 (Homo sapiens) (UniProt P35590); conditions: Compound concentration 1000.0 nM
[43] = target: Phosphatidylinositol 4,5-bisphosphate 3-kinase catalytic subunit alpha isoform (Homo sapiens) (UniProt P42336); conditions: Compound concentration 1000.0 nM

Chain of Wee1-like protein kinase 2 (Homo sapiens) (P0C1S8 whole entry, looked up): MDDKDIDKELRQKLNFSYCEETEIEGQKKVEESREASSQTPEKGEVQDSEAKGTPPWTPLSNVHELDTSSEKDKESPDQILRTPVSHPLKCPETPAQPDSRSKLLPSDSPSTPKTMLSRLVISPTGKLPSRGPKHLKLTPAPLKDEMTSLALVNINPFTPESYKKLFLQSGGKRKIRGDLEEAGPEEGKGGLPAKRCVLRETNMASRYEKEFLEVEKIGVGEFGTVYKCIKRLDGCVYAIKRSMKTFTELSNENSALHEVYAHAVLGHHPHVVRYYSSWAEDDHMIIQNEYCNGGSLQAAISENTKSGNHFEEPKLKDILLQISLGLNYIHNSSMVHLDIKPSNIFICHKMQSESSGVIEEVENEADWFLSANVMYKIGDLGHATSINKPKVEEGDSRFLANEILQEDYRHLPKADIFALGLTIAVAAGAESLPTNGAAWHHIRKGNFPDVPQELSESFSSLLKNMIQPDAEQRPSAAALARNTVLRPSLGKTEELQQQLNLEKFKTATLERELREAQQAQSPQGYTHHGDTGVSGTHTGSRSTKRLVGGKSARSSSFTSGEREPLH
Chain of Serine/threonine-protein kinase LATS2 (Homo sapiens) (Q9NRM7 whole entry): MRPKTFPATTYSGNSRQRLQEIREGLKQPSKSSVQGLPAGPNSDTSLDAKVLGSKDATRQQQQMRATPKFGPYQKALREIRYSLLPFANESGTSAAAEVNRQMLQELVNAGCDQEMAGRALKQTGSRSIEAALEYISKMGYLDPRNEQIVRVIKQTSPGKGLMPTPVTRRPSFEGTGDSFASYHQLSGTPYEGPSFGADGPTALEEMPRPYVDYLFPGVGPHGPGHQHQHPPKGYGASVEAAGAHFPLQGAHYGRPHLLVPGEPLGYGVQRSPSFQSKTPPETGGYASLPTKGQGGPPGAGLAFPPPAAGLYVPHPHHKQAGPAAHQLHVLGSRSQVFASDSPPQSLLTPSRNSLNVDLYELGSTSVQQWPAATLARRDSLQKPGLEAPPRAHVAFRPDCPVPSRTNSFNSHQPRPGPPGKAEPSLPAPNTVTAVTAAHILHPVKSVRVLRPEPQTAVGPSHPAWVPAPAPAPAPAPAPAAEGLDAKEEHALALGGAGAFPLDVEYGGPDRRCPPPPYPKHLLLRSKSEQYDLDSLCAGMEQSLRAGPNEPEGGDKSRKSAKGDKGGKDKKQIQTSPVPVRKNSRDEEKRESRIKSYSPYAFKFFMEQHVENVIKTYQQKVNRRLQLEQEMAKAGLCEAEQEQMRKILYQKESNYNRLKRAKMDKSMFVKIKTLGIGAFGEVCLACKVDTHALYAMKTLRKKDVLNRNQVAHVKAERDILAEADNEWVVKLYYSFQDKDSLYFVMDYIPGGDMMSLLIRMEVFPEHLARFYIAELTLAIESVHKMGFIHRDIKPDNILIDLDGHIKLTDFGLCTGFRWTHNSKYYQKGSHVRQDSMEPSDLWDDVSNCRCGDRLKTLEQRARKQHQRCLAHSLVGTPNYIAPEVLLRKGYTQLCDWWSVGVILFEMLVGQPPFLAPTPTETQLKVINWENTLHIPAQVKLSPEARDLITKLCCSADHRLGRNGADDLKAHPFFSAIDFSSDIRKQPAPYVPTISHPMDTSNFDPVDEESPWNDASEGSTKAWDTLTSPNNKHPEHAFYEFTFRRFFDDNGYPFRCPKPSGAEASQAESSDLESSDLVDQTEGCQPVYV
Chain of Serine/threonine-protein kinase WNK4 (Homo sapiens) (Q96J92 whole entry): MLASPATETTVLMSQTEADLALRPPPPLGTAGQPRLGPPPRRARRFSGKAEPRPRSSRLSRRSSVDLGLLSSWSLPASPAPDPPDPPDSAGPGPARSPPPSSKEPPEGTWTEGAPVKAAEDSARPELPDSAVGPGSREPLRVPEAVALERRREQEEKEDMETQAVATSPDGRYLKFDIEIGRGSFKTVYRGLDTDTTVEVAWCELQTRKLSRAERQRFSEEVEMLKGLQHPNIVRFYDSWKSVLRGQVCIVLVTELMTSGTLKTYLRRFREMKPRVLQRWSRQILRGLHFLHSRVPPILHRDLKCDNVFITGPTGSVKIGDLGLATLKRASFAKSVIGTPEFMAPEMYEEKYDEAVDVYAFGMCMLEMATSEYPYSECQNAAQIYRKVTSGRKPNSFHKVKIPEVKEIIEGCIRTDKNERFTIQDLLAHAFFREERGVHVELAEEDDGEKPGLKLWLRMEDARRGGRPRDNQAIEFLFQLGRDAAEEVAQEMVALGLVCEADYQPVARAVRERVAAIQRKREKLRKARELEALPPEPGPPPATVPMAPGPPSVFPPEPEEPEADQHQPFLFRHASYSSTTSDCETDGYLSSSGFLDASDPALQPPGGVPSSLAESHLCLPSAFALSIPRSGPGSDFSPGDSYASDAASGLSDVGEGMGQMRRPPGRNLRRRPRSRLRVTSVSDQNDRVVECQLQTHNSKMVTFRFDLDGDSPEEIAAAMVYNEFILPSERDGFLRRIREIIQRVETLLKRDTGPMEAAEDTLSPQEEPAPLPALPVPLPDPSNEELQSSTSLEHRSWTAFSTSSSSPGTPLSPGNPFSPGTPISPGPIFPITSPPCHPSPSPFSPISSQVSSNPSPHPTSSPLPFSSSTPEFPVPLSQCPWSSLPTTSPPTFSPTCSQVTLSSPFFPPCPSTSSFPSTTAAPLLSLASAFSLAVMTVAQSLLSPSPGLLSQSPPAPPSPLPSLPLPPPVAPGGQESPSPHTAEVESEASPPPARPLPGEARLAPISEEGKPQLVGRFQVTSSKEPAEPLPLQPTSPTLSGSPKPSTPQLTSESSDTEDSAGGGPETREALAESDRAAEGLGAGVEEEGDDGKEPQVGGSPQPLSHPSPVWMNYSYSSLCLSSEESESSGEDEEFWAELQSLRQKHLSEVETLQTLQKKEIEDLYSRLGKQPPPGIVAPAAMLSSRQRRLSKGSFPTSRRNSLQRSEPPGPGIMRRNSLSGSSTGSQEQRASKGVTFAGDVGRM
Chain of Serine/threonine-protein kinase VRK2 (Homo sapiens) (Q86Y07 whole entry): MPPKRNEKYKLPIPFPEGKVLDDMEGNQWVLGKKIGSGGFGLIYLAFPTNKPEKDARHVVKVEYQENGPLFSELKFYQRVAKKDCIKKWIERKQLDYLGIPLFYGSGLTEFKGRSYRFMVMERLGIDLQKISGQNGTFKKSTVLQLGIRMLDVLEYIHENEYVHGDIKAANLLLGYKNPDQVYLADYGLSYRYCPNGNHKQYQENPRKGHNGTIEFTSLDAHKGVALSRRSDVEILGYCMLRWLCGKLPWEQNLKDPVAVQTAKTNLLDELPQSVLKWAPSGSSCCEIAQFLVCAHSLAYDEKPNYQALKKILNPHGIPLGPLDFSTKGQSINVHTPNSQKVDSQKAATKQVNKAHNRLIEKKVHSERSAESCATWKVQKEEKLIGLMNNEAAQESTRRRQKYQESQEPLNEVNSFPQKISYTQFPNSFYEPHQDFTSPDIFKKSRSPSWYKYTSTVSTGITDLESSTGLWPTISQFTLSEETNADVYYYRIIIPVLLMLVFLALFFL
Chain of Mast/stem cell growth factor receptor Kit (Homo sapiens), P10721 [L576P] (P10721 whole entry L576P): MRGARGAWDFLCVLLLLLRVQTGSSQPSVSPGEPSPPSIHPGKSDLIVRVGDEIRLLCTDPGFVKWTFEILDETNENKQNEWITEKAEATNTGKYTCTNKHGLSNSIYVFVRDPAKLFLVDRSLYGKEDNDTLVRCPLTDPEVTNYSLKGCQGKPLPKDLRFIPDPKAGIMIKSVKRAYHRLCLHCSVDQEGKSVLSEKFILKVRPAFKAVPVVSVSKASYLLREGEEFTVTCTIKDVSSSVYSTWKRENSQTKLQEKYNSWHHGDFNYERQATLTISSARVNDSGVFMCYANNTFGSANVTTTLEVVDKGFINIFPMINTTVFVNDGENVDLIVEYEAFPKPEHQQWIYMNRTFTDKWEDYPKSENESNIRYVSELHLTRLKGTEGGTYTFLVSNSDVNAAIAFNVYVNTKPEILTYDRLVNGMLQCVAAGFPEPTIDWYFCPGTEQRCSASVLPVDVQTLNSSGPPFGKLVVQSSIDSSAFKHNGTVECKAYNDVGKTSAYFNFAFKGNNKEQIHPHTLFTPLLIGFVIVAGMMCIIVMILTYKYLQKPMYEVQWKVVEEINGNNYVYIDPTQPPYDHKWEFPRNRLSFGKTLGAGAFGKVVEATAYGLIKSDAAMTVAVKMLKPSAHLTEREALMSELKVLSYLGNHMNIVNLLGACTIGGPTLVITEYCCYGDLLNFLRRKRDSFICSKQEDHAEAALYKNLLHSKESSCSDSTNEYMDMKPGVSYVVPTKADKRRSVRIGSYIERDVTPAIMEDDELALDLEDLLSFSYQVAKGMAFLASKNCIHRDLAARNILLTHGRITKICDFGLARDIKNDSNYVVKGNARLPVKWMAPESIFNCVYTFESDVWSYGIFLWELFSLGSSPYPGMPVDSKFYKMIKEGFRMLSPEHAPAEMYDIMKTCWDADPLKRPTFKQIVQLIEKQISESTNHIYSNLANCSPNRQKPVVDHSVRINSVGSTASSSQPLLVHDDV
Chain of Dual specificity mitogen-activated protein kinase kinase 2 (Homo sapiens) (P36507 whole entry): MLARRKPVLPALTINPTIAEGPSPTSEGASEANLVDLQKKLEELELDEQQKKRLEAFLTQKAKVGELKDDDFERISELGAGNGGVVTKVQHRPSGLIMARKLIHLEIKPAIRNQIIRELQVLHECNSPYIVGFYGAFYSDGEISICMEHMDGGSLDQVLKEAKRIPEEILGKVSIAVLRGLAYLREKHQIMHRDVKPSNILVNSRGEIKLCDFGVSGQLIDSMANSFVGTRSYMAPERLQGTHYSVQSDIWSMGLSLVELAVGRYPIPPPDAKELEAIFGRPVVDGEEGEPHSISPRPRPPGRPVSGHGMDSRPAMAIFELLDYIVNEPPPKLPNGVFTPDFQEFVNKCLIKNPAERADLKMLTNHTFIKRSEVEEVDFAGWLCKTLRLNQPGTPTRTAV
Chain of Sigma intracellular receptor 2 (Q5BJF2 whole entry): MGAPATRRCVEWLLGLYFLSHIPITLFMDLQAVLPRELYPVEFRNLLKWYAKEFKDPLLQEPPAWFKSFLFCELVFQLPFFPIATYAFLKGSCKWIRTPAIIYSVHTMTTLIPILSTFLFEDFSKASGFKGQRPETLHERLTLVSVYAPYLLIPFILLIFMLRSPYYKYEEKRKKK

CO[C@H]1CC[C@H](CNc2ccc(S(=O)(=O)NC(=O)c3ccc(N4CCN(CC5=C(c6ccc(Cl)cc6)CC(C)(C)CC5)CC4)cc3Oc3cnc4[nH]ccc4c3)cc2[N+](=O)[O-])CC1 [A-1211212]
residual activity [1]: 74% | residual activity [2]: 100% | residual activity [3]: 100% | residual activity [4]: 67% | residual activity [5]: 75% | residual activity [6]: 78% | residual activity [7]: 85% | residual activity [8]: 94% | residual activity [9]: 84% | residual activity [10]: 100% | residual activity [11]: 84% | residual activity [12]: 100% | residual activity [13]: 100% | residual activity [14]: 100% | residual activity [15]: 50% | % Inhibition of Control Specific Binding (Mean n=2) (Rattus norvegicus [16]): -12.6% | residual activity [17]: 100% | residual activity [18]: 96% | residual activity [19]: 82% | residual activity [20]: 90% | residual activity [21]: 75% | residual activity [22]: 71% | inhibition (Rattus norvegicus [23]): 41.5% | residual activity [24]: 71% | residual activity [25]: 91% | residual activity [26]: 73% | residual activity [27]: 85% | % Inhibition of Control Specific Binding (Mean n=2) [28]: 17.3% | residual activity [29]: 81% | residual activity [30]: 94% | residual activity [31]: 83% | residual activity [32]: 100% | Ki [33]: 1.49 µM | residual activity [34]: 100% | % Inhibition of Control Specific Binding (Mean n=2) [35]: 1.3% | residual activity [36]: 100% | % Inhibition of Control Specific Binding (Mean n=2) [37]: 1.9% | residual activity [38]: 81% | residual activity [39]: 92% | residual activity [40]: 100% | residual activity [41]: 86% | residual activity [42]: 100% | residual activity [43]: 77%

O=C(NS(=O)(=O)c1ccc(NCC2CCOCC2)c([N+](=O)[O-])c1)c1ccc(N2CCN(Cc3ccc(C(F)(F)F)cc3-c3ccc(Cl)cc3)CC2)cc1Oc1cnc2[nH]ccc2c1 [A-1210227]
residual activity [1]: 81% | residual activity [2]: 100% | residual activity [3]: 100% | residual activity [4]: 71% | residual activity [5]: 100% | residual activity [6]: 87% | residual activity [7]: 94% | residual activity [8]: 88% | residual activity [9]: 92% | residual activity [10]: 100% | residual activity [11]: 84% | residual activity [12]: 100% | residual activity [13]: 98% | residual activity [14]: 84% | residual activity [15]: 100% | % Inhibition of Control Specific Binding (Mean n=2) (Rattus norvegicus [16]): -4.8% | residual activity [17]: 100% | residual activity [18]: 100% | residual activity [19]: 78% | residual activity [20]: 94% | residual activity [21]: 100% | residual activity [22]: 89% | inhibition (Rattus norvegicus [23]): 11.6% | residual activity [24]: 100% | residual activity [25]: 100% | residual activity [26]: 84% | residual activity [27]: 100% | % Inhibition of Control Specific Binding (Mean n=2) [28]: 24% | residual activity [29]: 100% | residual activity [30]: 94% | residual activity [31]: 82% | residual activity [32]: 100% | Ki [33]: 8.37 µM | residual activity [34]: 100% | % Inhibition of Control Specific Binding (Mean n=2) [35]: -1.3% | residual activity [36]: 88% | % Inhibition of Control Specific Binding (Mean n=2) [37]: 19.2% | residual activity [38]: 99% | residual activity [39]: 69% | residual activity [40]: 100% | residual activity [41]: 81% | residual activity [42]: 100% | residual activity [43]: 69%
